Columns and labels:
[1] = tested on: ras-transformed NIH/3T3 cells
[2] = tested on: PAPH; experiment: inhibition of PAPH / DAG formation in specific activation pathway; assay type: biochemical, human; conditions: specific activation pathway that does not involve PI
Text: The compounds and pharmaceutical compositions of the invention include inhibitors of subspecies of LPAAT and PAPH enzymes with substrate specificity for intermediates with 1,2-diunsaturated and 1-alkyl, 2-unsaturated subspecies. One representative example of such an inhibitor (although not within the genus of inventive compounds) is PTX. […] It should be emphasized that the compounds of the invention affect that subset of PAPH and LPAAT that relates to substrates with unsaturated fatty acids other than arachidonate in the sn-2 position, not the housekeeping forms of these enzymes that serve the PI pathway.
(§1) One in vitro assay measures inhibition of the relevant enzymes lysophosphatidic acid acyltransferase (LPAAT) and phosphatidic acid phosphoryl hydrolase (PAPH). […] It is important to note that the assay method permits discrimination between various forms of PA and DAG so that those relevant to the pathway affected by the (R) or (S) compounds of the invention can be measured directly. […] Thus, the relevant unsaturated (non-arachidonic) PA and DAG subspecies may be detected. […]

[3] = tested on: tumor necrosis factor (TNF); conditions: normal volunteers; cited from earlier work
[4] = tested on: ras transformation in NIH/3T3 cells; experiment: generation of DAG and PA in ras-transformed NIH/3T3 cells; assay type: cell-based; conditions: pretreatment of cells; 4-12 hours
Text: For example, activating ras mutations result in increased generation of DAG upon stimulation with mitogens, although the sources of DAG differ between experimental systems. In nontransformed renal mesangial cells, IL-1β stimulation increased PLA2 and LPAAT activation, resulting in generation of sn-2 unsaturated PA and subsequent hydrolysis to DAG by phosphatidate phosphohydrolase. The ras transformation in NIH/3T3 cells upregulates serum-stimulated generation of DAG and PA. Particular species of DAG that is stimulated by serum is dioleoyl and of PA are dilinoleoyl and dioleoyl. […] The inhibition occurs either through suppressing the generation of PA de novo from lysoPA, or through inhibition of one or both arms of the Lands cycle. […] Therefore, the ras transformation mediates an upregulation of PA through indirect stimulation of PLA2 and/or LPAAT activity.

[5] = tested on: L929 cells; experiment: TNF-α-mediated cytotoxicity in L929 cells; assay type: cell-based, murine; conditions: human TNF-α 300 pg/ml; FIG. 9
Protocol: An inventive compound can be assayed for activity protecting TNF-mediated cytotoxicity. In this assay, L929 murine fibroblast cells (10^4 cells per well) are incubated with either compounds at varying doses and media control for two hrs. […] The cells plus (or minus) drug plus TNF were incubated for 40 hrs at 37° C. The media is removed and replaced with fresh media containing 2% serum and 10 μg/ml of BCECF fluorescent dye and incubated for 30 min. The fluorescent dye-containing media is removed and replaced with PBS (phosphate buffered saline) and each well was assayed for fluorescence.
This assay is a model for septic shock. L929 cells (10^5) were treated with human TNF-α at 300 pg/ml in RPMI media containing 10% fetal calf serum with or without compound no. One day later, the cells were stained for viability using the fluorescent dye BCECF and fluorescence of the samples was analyzed using a Milipore plate reader.

[6] = tested on: LPAAT; experiment: formation of remodeled PA at LPAAT; assay type: biochemical
Text: Even in the presence of PTX, cells continue to form PA through the action of PLD, and DAG is also formed through the action of phospholipase C on PC and PI. The latter pathway are not inhibited by the inventive compounds or PTX. In PTX-treated cells, DAG derived from remodeled and PLA-generated PA is diminished (e.g., 1,2-sn-dioleoyl DAG, 1-alkyl, 2-linoleoyl DAG and 1-alkyl, 2-docosahexaneolyl DAG). Therefore, the inventive compounds and PTX inhibit the formation of only a certain species of PA and DAG by selectively inhibiting a specific second messenger pathway that is only activated in cells by noxious stimuli, but is not used to signal normal cellular housekeeping functions.
as §1

[7] = tested on: polymorphonuclear leukocytes; conditions: cited from earlier work

## CC(=O)CCCCn1c(=O)c2c(ncn2C)n(C)c1=O [PTX, 1-(5-oxohexyl)-3,7-dimethylxanthine]
[1]
  inhibition of ras-transformed NIH/3T3 cells relative to parental cells: inhibits ras-transformed NIH/3T3 cells more than parental cells
  reversibility / cytotoxicity of inhibition: reversible and is not associated with significant cytotoxicity
[2]
  blocking of PAPH: blocks PAPH in a specific activation pathway
[3]
  TNF levels: TNF levels were higher among PTX recipients
[4]
  generation of phospholipid second messengers (DAG, PA): blocks generation of these phospholipid second messengers
[5]
  protection of L929 cells from TNF-induced cytotoxicity: inhibited TNF-induced cytotoxicity in a dose dependent manner
[6]; PTX-treated cells
  DAG derived from remodeled and PLA-generated PA: diminished
[6]; in vitro, high PTX concentrations
  formation of remodeled PA: blocks formation of remodeled PA through the PA/DAG pathway at high PTX concentrations
[7]; U.S. Pat. Nos. 4,965,271 and 5,096,906
  inhibition of cytokine activity to affect chemotaxis: inhibit activity of certain cytokines to affect chemotaxis
[7]; in response to a stimulator of chemotaxis, U.S. Pat. No. 4,636,507
  stimulation of chemotaxis in polymorphonuclear leukocytes: stimulate chemotaxis in polymorphonuclear leukocytes

— US5770595A, “Oxime substituted therapeutic compounds” (Cell Therapeutics, Inc., priority 1994, dated 1998)
